Consider 17 compounds from ChEMBL document CHEMBL1123843, “Anticoagulant peptides: nature of the interaction of the C-terminal region of hirudin with a noncatalytic binding site on thrombin” (J Med Chem, 1987).

The term IC50 denotes the midpoint of a concentration-inhibition curve.

One assay concerns the target Prothrombin (Bos taurus, UniProt P00735). Briefly: Inhibition of plasma fibrin clot formation by thrombin in vitro. In kind it is functional, cell-free.
The target of a further assay is Prothrombin (Bos taurus) (UniProt P00735). Description: Relative potency for fibrin clot inhibition compared to hirudin55-65. In kind it is functional. Also noted: unit not given here.

Square brackets hold non-standard residues; d marks the D form. Peptide text beside a SMILES is read from it. sY = N[C@@H](Cc1ccc(OS(=O)(=O)O)cc1)C(=O)O; Sar = CNCC(=O)O

At Prothrombin, `CC(C)C[C@H](NC(=O)[C@H](Cc1ccc(OS(=O)(=O)O)cc1)NC(=O)[C@H](CCC(=O)O)NC(=O)[C@H](CCC(=O)O)NC(=O)[C@@H]1CCCN1C(=O)[C@H](C)NC(=O)[C@H](CCC(=O)O)NC(=O)[C@H](CCC(=O)O)NC(=O)[C@H](Cc1ccccc1)NC(=O)[C@@H](N)CC(=O)O)C(=O)N[C@@H](CCC(N)=O)C(=O)O` (H-DFEEAPEE[sY]LQ-OH) came in with an IC50 greater than 200 µM. Besides, the Relative potency at Prothrombin (Bos taurus) is less than 3.

For `CC[C@H](C)[C@H](NC(=O)[C@H](CCC(=O)O)NC(=O)[C@H](CCC(=O)O)NC(=O)[C@H](Cc1ccccc1)NC(=O)[C@H](CC(=O)O)NC(=O)CN)C(=O)N[C@H](C)C(=O)N[C@@H](CCC(=O)O)C(=O)N[C@@H](CCC(=O)O)C(=O)N[C@@H](Cc1ccc(OS(=O)(=O)O)cc1)C(=O)N[C@@H](CC(C)C)C(=O)N[C@@H](CCC(N)=O)C(=O)O`, the half-inhibitory concentration (IC50) against Prothrombin is 27 µM. On Prothrombin (Bos taurus), this compound showed a Relative potency of 26.

`CC[C@H](C)[C@H](NC(=O)[C@H](CCC(=O)O)NC(=O)[C@H](CCC(=O)O)NC(=O)[C@H](Cc1ccccc1)NC(=O)[C@H](CC(=O)O)NC(=O)CNC(=O)[C@H](CC(=O)O)NC(=O)[C@H](CC(N)=O)NC(=O)[C@H](Cc1cnc[nH]1)NC(=O)[C@H](CO)NC(=O)[C@H](CCC(N)=O)NC(=O)[C@@H]1CCCN1C(=O)[C@H](CCCCN)NC(=O)[C@@H]1CCCN1C(=O)[C@@H](NC(C)=O)[C@@H](C)O)C(=O)N1CCC[C@H]1C(=O)N[C@@H](CCC(=O)O)C(=O)N[C@@H](CCC(=O)O)C(=O)N[C@@H](Cc1ccc(OS(=O)(=O)O)cc1)C(=O)N[C@@H](CC(C)C)C(=O)N[C@@H](CCC(N)=O)C(=O)O`: 1.6 µM corresponded to half-maximal inhibition against Prothrombin (IC50).

The compound `CC[C@H](C)[C@H](NC(=O)[C@H](C)NC(=O)[C@H](CCC(=O)O)NC(=O)[C@H](Cc1ccccc1)NC(=O)[C@@H](N)CC(=O)O)C(=O)N1CCC[C@H]1C(=O)N[C@@H](CCC(=O)O)C(=O)N[C@@H](CCC(=O)O)C(=O)N[C@@H](Cc1ccc(OS(=O)(=O)O)cc1)C(=O)N[C@@H](CC(C)C)C(=O)N[C@@H](CCC(N)=O)C(=O)O` (H-DFEAIPEE[sY]LQ-OH) showed an IC50 against Prothrombin of 13.3 µM. Moreover, the Relative potency at Prothrombin (Bos taurus) turned out to be 53.

As for `CC[C@H](C)[C@H](NC(=O)[C@H](CCC(=O)O)NC(=O)[C@H](CCC(=O)O)NC(=O)[C@H](Cc1ccccc1)NC(=O)[C@@H](N)CC(=O)O)C(=O)N1CCC[C@H]1C(=O)N[C@@H](C)C(=O)N[C@@H](CCC(=O)O)C(=O)N[C@@H](Cc1ccc(OS(=O)(=O)O)cc1)C(=O)N[C@@H](CC(C)C)C(=O)N[C@@H](CCC(N)=O)C(=O)O` (H-DFEEIPAE[sY]LQ-OH), it took 18.5 µM to reach half-maximal inhibition at Prothrombin (IC50). For the same compound, at Prothrombin (Bos taurus), the Relative potency worked out at 38.

`CC[C@H](C)[C@H](NC(=O)[C@H](CCC(=O)O)NC(=O)[C@H](CCC(=O)O)NC(=O)[C@H](Cc1ccccc1)NC(=O)[C@@H](N)CC(=O)O)C(=O)N1CCC[C@H]1C(=O)N[C@@H](CCC(=O)O)C(=O)N[C@@H](CCC(=O)O)C(=O)N[C@@H](Cc1ccc(OS(=O)(=O)O)cc1)C(=O)N[C@@H](C)C(=O)N[C@@H](CCC(N)=O)C(=O)O` (H-DFEEIPEE[sY]AQ-OH) had an IC50 at Prothrombin greater than 200 µM. In addition, the Relative potency at Prothrombin (Bos taurus) is less than 3.

In turn, `CC[C@H](C)[C@H](NC(=O)[C@H](CCC(=O)O)NC(=O)[C@H](C)NC(=O)[C@H](Cc1ccccc1)NC(=O)[C@@H](N)CC(=O)O)C(=O)N1CCC[C@H]1C(=O)N[C@@H](CCC(=O)O)C(=O)N[C@@H](CCC(=O)O)C(=O)N[C@@H](Cc1ccc(OS(=O)(=O)O)cc1)C(=O)N[C@@H](CC(C)C)C(=O)N[C@@H](CCC(N)=O)C(=O)O` (H-DFAEIPEE[sY]LQ-OH) gave an IC50 at Prothrombin greater than 200 µM. This compound also had a Relative potency at Prothrombin (Bos taurus) of less than 3.

In the case of `CC[C@H](C)[C@H](NC(=O)[C@H](CCC(=O)O)NC(=O)[C@H](CCC(=O)O)NC(=O)[C@H](Cc1ccccc1)NC(=O)[C@@H](N)CC(=O)O)C(=O)N1CCC[C@H]1C(=O)N[C@@H](CCC(=O)O)C(=O)N[C@@H](CCC(=O)O)C(=O)N[C@@H](CCC(=O)O)C(=O)N[C@@H](CC(C)C)C(=O)N[C@@H](C)C(=O)O` (H-DFEEIPEEELA-OH), on Prothrombin, half-maximal inhibition (IC50) was put at 59.1 µM. Further, the Relative potency on Prothrombin (Bos taurus) amounted to 12.

`CC[C@H](C)[C@H](NC(=O)[C@H](CCC(=O)O)NC(=O)[C@H](CCC(=O)O)NC(=O)[C@H](CC(C)C)NC(=O)[C@@H](N)CC(=O)O)C(=O)N1CCC[C@H]1C(=O)N[C@@H](CCC(=O)O)C(=O)N[C@@H](CCC(=O)O)C(=O)N[C@@H](Cc1ccc(OS(=O)(=O)O)cc1)C(=O)N[C@@H](CC(C)C)C(=O)N[C@@H](CCC(N)=O)C(=O)O` (H-DLEEIPEE[sY]LQ-OH) returned a half-maximal inhibitory concentration (IC50) on Prothrombin greater than 200 µM. In addition, the Relative potency on Prothrombin (Bos taurus) was less than 2.

Compound `CC[C@H](C)[C@H](NC(=O)[C@H](CCC(=O)O)NC(=O)[C@H](CCC(=O)O)NC(=O)[C@H](Cc1ccc(O)cc1)NC(=O)[C@H](CC(=O)O)NC(=O)CN)C(=O)N1CCC[C@H]1C(=O)N[C@@H](CCC(=O)O)C(=O)N[C@@H](CCC(=O)O)C(=O)N[C@@H](Cc1ccc(OS(=O)(=O)O)cc1)C(=O)N[C@@H](CC(C)C)C(=O)N[C@@H](CCC(N)=O)C(=O)O` (H-GDYEEIPEE[sY]LQ-OH) came in with an IC50 against Prothrombin of 3.3 µM. In addition, the Relative potency at Prothrombin (Bos taurus) is 215.

At Prothrombin, `CC[C@H](C)[C@H](NC(=O)[C@H](CCC(=O)O)NC(=O)[C@H](CCC(=O)O)NC(=O)[C@H](Cc1ccccc1)NC(=O)[C@@H](N)CC(=O)O)C(=O)N[C@@H](C)C(=O)N[C@@H](CCC(=O)O)C(=O)N[C@@H](CCC(=O)O)C(=O)N[C@@H](Cc1ccc(OS(=O)(=O)O)cc1)C(=O)N[C@@H](CC(C)C)C(=O)N[C@@H](CCC(N)=O)C(=O)O` (H-DFEEIAEE[sY]LQ-OH) had an IC50 greater than 200 µM. The compound further showed a Relative potency on Prothrombin (Bos taurus) of less than 3.

The compound `CC[C@H](C)[C@H](NC(=O)[C@H](CCC(=O)O)NC(=O)[C@H](CCC(=O)O)NC(=O)[C@H](Cc1ccccc1)NC(=O)[C@@H](N)CC(=O)O)C(=O)N1CCC[C@H]1C(=O)N[C@@H](CCC(=O)O)C(=O)N[C@@H](CCC(=O)O)C(=O)N[C@@H](C)C(=O)N[C@@H](CC(C)C)C(=O)N[C@@H](CCC(N)=O)C(=O)O` (H-DFEEIPEEALQ-OH) had an IC50 at Prothrombin of 13.6 µM. Besides, at Prothrombin (Bos taurus), the Relative potency stood at 52.

In turn, `CC[C@H](C)[C@H](NC(=O)[C@H](CCC(=O)O)NC(=O)[C@H](CCC(=O)O)NC(=O)[C@H](Cc1ccccc1)NC(=O)[C@H](CC(=O)O)NC(=O)CN)C(=O)N(C)CC(=O)N[C@@H](CCC(=O)O)C(=O)N[C@@H](CCC(=O)O)C(=O)N[C@@H](Cc1ccc(OS(=O)(=O)O)cc1)C(=O)N[C@@H](CC(C)C)C(=O)N[C@@H](CCC(N)=O)C(=O)O` (H-GDFEEI[Sar]EE[sY]LQ-OH) came in with an IC50 at Prothrombin of 17.3 µM. On Prothrombin (Bos taurus), this compound gave a Relative potency of 41.

`CC[C@H](C)[C@H](NC(=O)[C@H](CCC(=O)O)NC(=O)[C@H](CCC(=O)O)NC(=O)[C@H](Cc1ccccc1)NC(=O)[C@@H](N)CC(=O)O)C(=O)N1CCC[C@H]1C(=O)N[C@@H](CCC(=O)O)C(=O)N[C@@H](C)C(=O)N[C@@H](Cc1ccc(OS(=O)(=O)O)cc1)C(=O)N[C@@H](CC(C)C)C(=O)N[C@@H](CCC(N)=O)C(=O)O` (H-DFEEIPEA[sY]LQ-OH): at Prothrombin, it took 42.8 µM to reach half-maximal inhibition (IC50). This compound gave a Relative potency at Prothrombin (Bos taurus) of 17.

`CC(C)C[C@H](NC(=O)[C@H](Cc1ccc(OS(=O)(=O)O)cc1)NC(=O)[C@H](CCC(=O)O)NC(=O)[C@H](CCC(=O)O)NC(=O)[C@@H]1CCCN1C(=O)[C@H](CC(C)C)NC(=O)[C@H](CCC(=O)O)NC(=O)[C@H](CCC(=O)O)NC(=O)[C@H](Cc1ccccc1)NC(=O)[C@H](CC(=O)O)NC(=O)CN)C(=O)N[C@@H](CCC(N)=O)C(=O)O` (H-GDFEELPEE[sY]LQ-OH) returned an IC50 on Prothrombin of 8.3 µM. Besides, the Relative potency on Prothrombin (Bos taurus) worked out at 86.

`CC(C)CC(NC(=O)[C@H](Cc1ccc(OS(=O)(=O)O)cc1)NC(=O)[C@H](CCC(=O)O)NC(=O)[C@H](CCC(=O)O)NC(=O)[C@@H]1CCCN1C(=O)C(CC(C)C)NC(=O)[C@H](CCC(=O)O)NC(=O)[C@H](CCC(=O)O)NC(=O)[C@H](Cc1ccccc1)NC(=O)[C@@H](N)CC(=O)O)C(=O)N[C@@H](C)C(=O)O` (stereo in doubt) had an IC50 against Prothrombin greater than 200 µM. At Prothrombin (Bos taurus), the Relative potency is less than 3.

As to `CC[C@H](C)[C@H](NC(=O)[C@H](CCC(=O)O)NC(=O)[C@H](CCC(=O)O)NC(=O)[C@H](CCC(=O)O)NC(=O)[C@@H](N)CC(=O)O)C(=O)N1CCC[C@H]1C(=O)N[C@@H](CCC(=O)O)C(=O)N[C@@H](CCC(=O)O)C(=O)N[C@@H](Cc1ccc(OS(=O)(=O)O)cc1)C(=O)N[C@@H](CC(C)C)C(=O)N[C@@H](CCC(N)=O)C(=O)O` (H-DEEEIPEE[sY]LQ-OH), the IC50 on Prothrombin was greater than 200 µM. In addition, the Relative potency on Prothrombin (Bos taurus) was less than 2.
